How the values were obtained:
[1] = system: serum levels of IL-1β; assay: LPS-induced inflammatory response in C57BL/6 mice, serum IL-1β by ELISA; type: in vivo; conditions: 20 mg/kg i.p. 1 hour before 10 mg/kg LPS i.p., 2 hours after LPS
Description: In vivo testing was carried out in C57BL/6 mice. The mice were injected intraperitoneally (“i.p.”) with 20 mg/kg NATx0 or a control (DMSO) 1 hour before i.p. injection of 10 mg/kg LPS Escherichia coli 055:B5 (Sigma-Aldrich). After 2 hours the mice were killed, and serum levels of IL-1β were measured by ELISA to determine inflammatory response.

[2] = system: HO-1; assay: Western blot of HO-1 protein expression in Raw 264.7 macrophages; type: cell-based, murine; conditions: Raw 264.7 cells, 5 μM, 18 hours
Description: (§1) Raw 264.7 cells, a murine macrophage cell line catalog no. TIB-71TM (ATCC, Manassas, Va.), were treated with NATx0 or NATx5 (5 μM) for 18 hours. Cells were lysed, and total protein concentration was measured with Pierce BCA assay (Thermo Fisher Scientific, Rockford, Ill.). For electrophoresis, 30 μg of protein was used in each line. The proteins were electrophoresed on a Tris/glycine SDS-polyacrylamide gradient gel (10-15%) and transferred to nitrocellulose membrane. The primary antibodies used for detection was rabbit polyclonal anti-HO-1 or anti-GCLM (Abcam, Cambridge, Mass.). Blots were visualized using horseradish peroxidase-conjugated secondary antibodies and ECL Plus detection system (GE Healthcare, Little Chalfont, UK). Blots were detected with a scanner. Protein expression was quantified with ImageQuant TL7.0 software (GE Healthcare, Little Chalfont, UK).

[3] = Stability in polyethylene glycol 300-400 at 37° C.; type: physicochemical; conditions: PEG 300 to PEG 400, 37° C., two weeks, RP-HPLC
Description: FIG. 10 presents the incubation of NATx0 incubated in PEG 300 to PEG 400 at 37° C. for two weeks. At each time point, an aliquot was extracted with methanol and analyzed by reverse phase chromatography as before. After two weeks in 37° C. in PEG, 50% of the initial concentration of NATx0 was recovered.

[4] = system: NF-κB/p65; assay: LPS-induced NF-κB/p65 nuclear translocation in THP-1 macrophages (immunofluorescence); type: cell-based; conditions: 10 uM, 2 hs before LPS (1 ug/mL)
Text: Nuclear factor kappa B (NF-κB) represents a family of pro-inflammatory transcription factors, present in all eukaryotic cells, which regulate inducible expression of wide ranging genes involved in immune responses and cell-cycle regulation. Activation of NF-κB is accompanied by nuclear translocation of NF-κB. […] Specifically, FIG. 11 illustrates immunofluorescence and epifluorescence microscopy analysis showing the effect of NATx0 on LPS-induced NF-κB/p65 subcellular localization in THP-1 macrophages.

[5] = system: THP-1 cells; assay: Cell viability (MTT) of THP-1 macrophages stimulated with LPS and ATP; type: cell-based; conditions: THP-1 macrophages activated by LPS or ATP, compound 0.5-20 μM together with first or second signal
Description: (§2) FIGS. 6A and 6B illustrate the effect of NATx0 on cell viability and NLRP3 inflammasome activation. THP-1 cells were differentiated into macrophages (PMA 200 nM, 48 hours). […] The cells were treated with NATx0 at 0.5 μM, 1.0 μM, 2.5 μM, 5.0 μM, 10 μM and 20 μM concentrations together with the first signal or the second signal. Cell viability was measured by MTT assay. Supernatant was stored.
(§3) At the first signal, we only observed a full inhibition of the inflammasome at 20 μM.

[6] = system: GCLM; assay: Western blot of GCLM protein expression in Raw 264.7 macrophages; type: cell-based, murine; conditions: Raw 264.7 cells, 5 μM, 18 hours
Description: as §1

[7] = system: NLRP3 inflammasome; assay: NLRP3 inflammasome activation in THP-1 macrophages, IL-1β by ELISA; type: cell-based
Description: as §2
In FIGS. 7A and 7B, supernatant stored from the previously described experiment were measured for IL-1β by ELISA.
as §3

[8] = system: RAW 264.7 cells; assay: Cytotoxicity in RAW 264.7 cells (MTT assay); type: cell-based, murine; conditions: Mus musculus, RAW264.7, 24 h treatment, read-out: IC50 (cell viability)
Description: FIG. 8 NATx0 cell cytotoxicity was evaluated in RAW 264.7 cells at 1, 5, 10, 50 and 100 μM in DMSO. Cells were treated for 24 h with NATx0 and then MTT assay was performed. The absorbance at 570 nm was measured for each condition by triplicate. The % cell liability was calculated using control group (DMSO, without treatment). The half maximal inhibitory concentration (IC50) was calculated after % cell viability was plotted against the concentration of NATx0 and fitted to an exponential function using OriginLab software (version 8.0).

[9] = Michael adduct formation with glutathione (UV-visible spectra, stopped-flow kinetics); type: physicochemical; conditions: 25 μM compound, absorbance at 260 nm, 25° C.
Description: In FIG. 3, 130 μM NATx0 was incubated with 2 mM Glutathione (Sigma) in 100 mM pH 7 phosphate buffer. UV-visible spectra was acquired by a Varian Cary 50 Bio. Scans were taken every min up to 15 min.
(§4) FIG. 4 illustrates a second order rate constant of the reaction between NATx0 and GSH. Stopped-flow kinetic measurements were performed using a Rx 2000 stopped flow analyzer (Applied Photophysics). Mixutres of 150 μL NATx0 (25 μM) and solutions of BME at 0.54 mM, 1.09 mM, 1.64 mM, 2.18 mM, and 2.73 mM concentrations.

[10] = Michael adduct formation with β-mercaptoethanol (UV-visible spectra, stopped-flow kinetics); type: physicochemical; conditions: 25 μM compound, BME 0.54-2.73 mM, absorbance at 260 nm, 25° C.
Description: UV-visible spectra was acquired by a Varian Cary 50 Bio. Scans were taken every min up to 15 min.
as §4, with “In FIG.” for “FIG.”, “2, it is shown that” for “4 illustrates a second order rate constant of”, “BME was determined to be a second order rate constant.” for “GSH.”

Compound	inflammatory response (serum IL-1β) [1]	HO-1 protein expression [2]	initial concentration recovered [3] [%]	LPS-induced NF-κB/p65 nuclear translocation [4]	cell mortality (cell viability by MTT) [5]	GCLM protein expression [6]	concentration giving full inhibition of the inflammasome ([7]; compound applied together with the first signal (LPS 250 ng/mL, 3 hours)) [µM]	concentration at which NLRP3 inflammasome activation is already inhibited ([7]; compound applied together with the second inflammasome-activating signal) [µM]	inhibition of inflammasome activation (IL-1β) ([7]; compound applied together with the second signal (ATP 5 mM, 45 minutes), 0.5-20 μM)	IC50 [8] [µM]	second order rate constant of the reaction with GSH [9] [M⁻¹ s⁻¹]	second order rate constant of the reaction with BME [10] [M⁻¹ s⁻¹]
Cc1c(C)c2c(c(C)c1O)CCC(C)(/C=C/[N+](=O)[O-])O2 (racemic) [NATx0, (±)-2,5,7,8-tetramethyl-2-[(E)-2-nitrovinyl]chroman-6-ol]	did not increase	induced the expression	50	no change from the negative control	does not induce an increase in cell mortality	induced the expression	20	5	inhibited inflammasome activation in dose dependent manner	24	23.45	23.45
CCC/C(=C\C1(C)CCc2c(C)c(O)c(C)c(C)c2O1)[N+](=O)[O-] (racemic) [NATx5, (±)-2,5,7,8-tetramethyl-2-[(E)-2-nitropent-1-en-1-yl]chroman-6-ol]	–	induced the expression	–	–	–	induced the expression	–	–	–	–	–	–

From patent US9994541B2, “Nitroalkene trolox derivatives and methods of use thereof in the treatment and prevention of inflammation related conditions” (Institut Pasteur de Montevideo, priority 2016, dated 2018)
